Measurements as given in patent publication US9738634B2, “Heterocyclic amide compound and herbicide” (SYNGENTA PARTICIPATIONS AG, priority 2013, dated 2017).

Assays:
Assay type in all cases: in vivo
wheat [1] = assay: Test Example 3: soil treatment, effect on crop; e: wheat; settings: treatment dosage 315 g/ha
Summary of the method: (§1)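 Crop and weed responses were judged three weeks after a uniform surface spray of the water-diluted emulsion at the given g/ha rate. Seeds sat beneath about 1.5 cm of sterilized diluvial soil, and boxes stood in a greenhouse at 25 to 30° C.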

birds-eye speedwell [2] = assay: Test Example 3: weedkilling efficacy through soil treatment; p: birds-eye speedwell; settings: treatment dosage 315 g/ha
Summary of the method: as §1

Italian ryegrass [3] = assay: Test Example 4: weedkilling efficacy by foliar treatment; I: Italian ryegrass; settings: treatment dosage 315 g/ha
Summary of the method: (§2)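 Seeds are spot-sown into sterilized diluvial soil and covered with about 1.5 cm of soil. After 14 days' greenhouse growth at 25 to 30° C, plants are sprayed on stems and leaves with diluted emulsion at the stated g/ha rate, then scored at 3 weeks.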

Italian ryegrass [4] = assay: Test Example 3: weedkilling efficacy through soil treatment; I: Italian ryegrass; settings: treatment dosage 315 g/ha
Summary of the method: as §1

directly sown rice [5] = assay: Test Example 3: soil treatment, effect on crop; b: directly sown rice; settings: treatment dosage 315 g/ha
Summary of the method: as §1

green foxtail [6] = assay: Test Example 3: weedkilling efficacy through soil treatment; E: green foxtail; settings: treatment dosage 315 g/ha
Summary of the method: as §1

beet [7] = assay: Test Example 4: foliar treatment, effect on crop; f: beet; settings: treatment dosage 315 g/ha
Summary of the method: as §2

barnyard grass [8] = assay: Test Example 2: weedkilling efficacy, growth period weed treatment in the submerged state; A: barnyard grass; settings: treatment dosage 252 g/ha
Summary of the method: (§3)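 Barnyard grass, bulrush and oval-leafed pondweed sown in alluvial soil under 4 cm flooding, greenhouse 25 to 30° C. At 1-2 leaf stage, water-diluted emulsion applied to the water surface at stated g/ha dosages; effects scored 3 weeks later.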

green foxtail [9] = assay: Test Example 4: weedkilling efficacy by foliar treatment; E: green foxtail; settings: treatment dosage 315 g/ha
Summary of the method: as §2

beet [10] = assay: Test Example 3: soil treatment, effect on crop; f: beet; settings: treatment dosage 315 g/ha
Summary of the method: as §1

Indian mallow [11] = assay: Test Example 4: weedkilling efficacy by foliar treatment; K: Indian mallow; settings: treatment dosage 315 g/ha
Summary of the method: as §2

soybean [12] = assay: Test Example 4: foliar treatment, effect on crop; d: soybean; settings: treatment dosage 315 g/ha
Summary of the method: as §2

Indian mallow [13] = assay: Test Example 3: weedkilling efficacy through soil treatment; K: Indian mallow; settings: treatment dosage 315 g/ha
Summary of the method: as §1

wild oat = assay: Test Example 3: weedkilling efficacy through soil treatment; G: wild oat; settings: treatment dosage 315 g/ha
Summary of the method: as §1

redroot pigweed [14] = assay: Test Example 4: weedkilling efficacy by foliar treatment; L: redroot pigweed; settings: treatment dosage 315 g/ha
Summary of the method: as §2

directly sown rice [15] = assay: Test Example 4: foliar treatment, effect on crop; b: directly sown rice; settings: treatment dosage 315 g/ha
Summary of the method: as §2

crabgrass [16] = assay: Test Example 4: weedkilling efficacy by foliar treatment; D: crabgrass; settings: treatment dosage 315 g/ha
Summary of the method: as §2

corn [17] = assay: Test Example 4: foliar treatment, effect on crop; c: corn; settings: treatment dosage 315 g/ha
Summary of the method: as §2

bulrush [18] = assay: Test Example 1: weedkilling efficacy, preemergent weed treatment in the submerged state; B: bulrush; settings: treatment dosage 252 g/ha
Summary of the method: (§4)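 Pots of alluvial soil flooded 4 cm deep, sown with barnyard grass, bulrush and oval-leafed pondweed and transplanted with 2.5-leaf rice. Emulsified compound applied to the water surface on sowing day at stated g/ha; greenhouse 25–30 °C, effects assessed 3 weeks after treatment.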

wheat [19] = assay: Test Example 4: foliar treatment, effect on crop; e: wheat; settings: treatment dosage 315 g/ha
Summary of the method: as §2

oval-leafed pondweed [20] = assay: Test Example 1: weedkilling efficacy, preemergent weed treatment in the submerged state; C: oval-leafed pondweed; settings: treatment dosage 252 g/ha
Summary of the method: as §4

chickweed [21] = assay: Test Example 4: weedkilling efficacy by foliar treatment; N: chickweed; settings: treatment dosage 315 g/ha
Summary of the method: as §2

black-grass [22] = assay: Test Example 3: weedkilling efficacy through soil treatment; H: black-grass; settings: treatment dosage 315 g/ha
Summary of the method: as §1

chickweed [23] = assay: Test Example 3: weedkilling efficacy through soil treatment; N: chickweed; settings: treatment dosage 315 g/ha
Summary of the method: as §1

bulrush [24] = assay: Test Example 2: weedkilling efficacy, growth period weed treatment in the submerged state; B: bulrush; settings: treatment dosage 252 g/ha
Summary of the method: as §3

black-grass [25] = assay: Test Example 4: weedkilling efficacy by foliar treatment; H: black-grass; settings: treatment dosage 315 g/ha
Summary of the method: as §2

fig-leafed goosefoot [26] = assay: Test Example 4: weedkilling efficacy by foliar treatment; M: fig-leafed goosefoot; settings: treatment dosage 315 g/ha
Summary of the method: as §2

transplanted rice = assay: Test Example 1: preemergent weed treatment in the submerged state, effect on crop; a: transplanted rice; settings: treatment dosage 252 g/ha
Summary of the method: as §4

catchweed = assay: Test Example 4: weedkilling efficacy by foliar treatment; O: catchweed; settings: treatment dosage 315 g/ha
Summary of the method: as §2

crabgrass [27] = assay: Test Example 3: weedkilling efficacy through soil treatment; D: crabgrass; settings: treatment dosage 315 g/ha
Summary of the method: as §1

fig-leafed goosefoot [28] = assay: Test Example 3: weedkilling efficacy through soil treatment; M: fig-leafed goosefoot; settings: treatment dosage 315 g/ha
Summary of the method: as §1

corn [29] = assay: Test Example 3: soil treatment, effect on crop; c: corn; settings: treatment dosage 315 g/ha
Summary of the method: as §1

redroot pigweed [30] = assay: Test Example 3: weedkilling efficacy through soil treatment; L: redroot pigweed; settings: treatment dosage 315 g/ha
Summary of the method: as §1

barnyard grass [31] = assay: Test Example 1: weedkilling efficacy, preemergent weed treatment in the submerged state; A: barnyard grass; settings: treatment dosage 252 g/ha
Summary of the method: as §4

birds-eye speedwell [32] = assay: Test Example 4: weedkilling efficacy by foliar treatment; p: birds-eye speedwell; settings: treatment dosage 315 g/ha
Summary of the method: as §2

oval-leafed pondweed [33] = assay: Test Example 2: weedkilling efficacy, growth period weed treatment in the submerged state; C: oval-leafed pondweed; settings: treatment dosage 252 g/ha
Summary of the method: as §3

soybean [34] = assay: Test Example 3: soil treatment, effect on crop; d: soybean; settings: treatment dosage 315 g/ha
Summary of the method: as §1

## CC1=C(c2ccsc2)C(=O)N(C(C)(C)C(=O)Nc2nc(C)ns2)CO1 [B-1-01]
Wheat [1]
  e (wheat) effect on crop grade: 4 (weed kill ratio 70% or more, less than 90%)
birds-eye speedwell [2]
  P (birds-eye speedwell) weedkilling efficacy grade: 5 (weed kill ratio 90% or more, (practically complete withering))
Italian ryegrass [3]
  I (Italian ryegrass) weedkilling efficacy grade: 5 (weed kill ratio 90% or more, (practically complete withering))
Italian ryegrass [4]
  I (Italian ryegrass) weedkilling efficacy grade: 5 (weed kill ratio 90% or more, (practically complete withering))
Directly sown rice [5]
  b (directly sown rice) effect on crop grade: 5 (weed kill ratio 90% or more, (practically complete withering))
Green foxtail [6]
  E (green foxtail) weedkilling efficacy grade: 5 (weed kill ratio 90% or more, (practically complete withering))
Beet [7]
  f (beet) effect on crop grade: 4 (weed kill ratio 70% or more, less than 90%)
Barnyard grass [8]
  A (barnyard grass) weedkilling efficacy grade: 5 (weed kill ratio 90% or more, (practically complete withering))
Green foxtail [9]
  E (green foxtail) weedkilling efficacy grade: 5 (weed kill ratio 90% or more, (practically complete withering))
Beet [10]
  f (beet) effect on crop grade: 3 (weed kill ratio 40% or more, less than 70%)
Indian mallow [11]
  K (Indian mallow) weedkilling efficacy grade: 4 (weed kill ratio 70% or more, less than 90%)
Soybean [12]
  d (soybean) effect on crop grade: 4 (weed kill ratio 70% or more, less than 90%)
Indian mallow [13]
  K (Indian mallow) weedkilling efficacy grade: 3 (weed kill ratio 40% or more, less than 70%)
Wild oat
  G (wild oat) weedkilling efficacy grade: 5 (weed kill ratio 90% or more, (practically complete withering))
Redroot pigweed [14]
  L (redroot pigweed) weedkilling efficacy grade: 5 (weed kill ratio 90% or more, (practically complete withering))
Directly sown rice [15]
  b (directly sown rice) effect on crop grade: 5 (weed kill ratio 90% or more, (practically complete withering))
Crabgrass [16]
  D (crabgrass) weedkilling efficacy grade: 5 (weed kill ratio 90% or more, (practically complete withering))
Corn [17]
  c (corn) effect on crop grade: 4 (weed kill ratio 70% or more, less than 90%)
Bulrush [18]
  B (bulrush) weedkilling efficacy grade: 5 (weed kill ratio 90% or more, (practically complete withering))
Wheat [19]
  e (wheat) effect on crop grade: 1 (weed kill ratio 5% or more, less than 20%)
oval-leafed pondweed [20]
  C (oval-leafed pondweed) weedkilling efficacy grade: 5 (weed kill ratio 90% or more, (practically complete withering))
Chickweed [21]
  N (chickweed) weedkilling efficacy grade: 4 (weed kill ratio 70% or more, less than 90%)
black-grass [22]
  H (black-grass) weedkilling efficacy grade: 5 (weed kill ratio 90% or more, (practically complete withering))
Chickweed [23]
  N (chickweed) weedkilling efficacy grade: 3 (weed kill ratio 40% or more, less than 70%)
Bulrush [24]
  B (bulrush) weedkilling efficacy grade: 5 (weed kill ratio 90% or more, (practically complete withering))
black-grass [25]
  H (black-grass) weedkilling efficacy grade: 5 (weed kill ratio 90% or more, (practically complete withering))
fig-leafed goosefoot [26]
  M (fig-leafed goosefoot) weedkilling efficacy grade: 5 (weed kill ratio 90% or more, (practically complete withering))
Transplanted rice
  a (transplanted rice) effect on crop grade: 4 (weed kill ratio 70% or more, less than 90%)
catchweed
  O (catchweed) weedkilling efficacy grade: 4 (weed kill ratio 70% or more, less than 90%)
Crabgrass [27]
  D (crabgrass) weedkilling efficacy grade: 5 (weed kill ratio 90% or more, (practically complete withering))
fig-leafed goosefoot [28]
  M (fig-leafed goosefoot) weedkilling efficacy grade: 5 (weed kill ratio 90% or more, (practically complete withering))
Corn [29]
  c (corn) effect on crop grade: 0 (weed kill ratio 5% or less (practically no effect))
Redroot pigweed [30]
  L (redroot pigweed) weedkilling efficacy grade: 4 (weed kill ratio 70% or more, less than 90%)
Barnyard grass [31]
  A (barnyard grass) weedkilling efficacy grade: 5 (weed kill ratio 90% or more, (practically complete withering))
birds-eye speedwell [32]
  P (birds-eye speedwell) weedkilling efficacy grade: 4 (weed kill ratio 70% or more, less than 90%)
oval-leafed pondweed [33]
  C (oval-leafed pondweed) weedkilling efficacy grade: 5 (weed kill ratio 90% or more, (practically complete withering))
Soybean [34]
  d (soybean) effect on crop grade: 2 (weed kill ratio 20% or more, less than 40%)
